How the values were obtained:
[1] = tested on: MNX rats; experiment: Incapacitance testing in MNX rats; assay type: in vivo, rat; details: day 8
Method: (§1) We have established the meniscal transection (MNX) rat model of osteoarthritis. Surgery resection was performed wherein cutting through and removing part of the medial collateral ligament and then transecting the medial meniscus was performed under Home Office License. Surgery was performed under anaesthesia. Animals were then allowed to recover from surgery.
(§2) Using the MNX model, we tested the effects of NBQX injected directly into the knee joint. There were 5 groups of male Sprague-Dawley rats, 3 animals per group as follows: • MNX+sterile H2O (vehicle control) • MNX+2.5 mM NBQX • MNX+12.5 mM NBQX • MNX+25 mM NBQX • Naïve
(§3) NBQX treated rats received two intra-articular injections, the first immediately after MNX surgery and the second 7 days later. A single dose of Temgesic was also given sub-cutaneously to relieve pain following surgery. […] Vehicle control rats received injections of sterile H2O delivered in the same way at the same times. Over 21 days, weight, knee swelling (digital calliper) and incapacitance (Linton incapacitance meter) were measured on days 0, 1, 2, 3, 7, 8, 10, 14 and 21. The Linton incapacitance meter measures the weight exerted on each back leg whilst the rat is stationary in a clear Perspex box. The difference in weight bearing can then be calculated between the left and right leg. All rats were euthanized on day 21 and the knee joints fixed in formalin for histology.

[2] = tested on: AMPA receptor; details: cited from earlier work
[3] = Body weight in MNX rats; assay type: in vivo, rat; details: all rats; over 21 days
Method: as §3

[4] = tested on: Kainate receptor; details: cited from earlier work
[5] = tested on: AIA rats; experiment: Footprint analysis in AIA rats
Method: (§4) For AIA, after a 7 day settling in period, animals received a subcutaneous injection of methylated bovine serum albumin (mBSA; 0.5 mg/ml; Sigma, Poole, UK) emulsified with an equal volume of Freund's complete adjuvant (CFA; 0.25 mg Mycobacterium tuberculosis: Sigma) into the right flank. A second subcutaneous injection of the emulsion was administered in the left flank 7 days later. Fourteen days following the second injection (day 0), an intra-articular injection of mBSA (0.5 mg in 50 μl saline) was administered into the right knee of 15 rats to serve as the AIA group. Another 15 rats received an intra-articular injection of 0.5 mg mBSA mixed with 2.5 mM NBQX (Tocris, Bristol, UK) in 50 μl saline, into the right knee. These rats served as the NBQX treatment group. […] Six control rats received no subcutaneous or intra-articular injections.
Hindlimb walking patterns were evaluated by footprint analysis on days 0, 1, 2, 3, 4, 7, 9, 14 and 21 as previously described (4). […] Three sets of at least two stepping cycles per side (six sequential steps) were performed for each rat per experimental day. Three parameters were measured: limb rotation (angle between a line through the centre of the foot pad parallel to the walking direction and a line through the third digit), stride length (distance between feet of the same side) and stance width (distance between feet of the right and left stepping cycle).

[6] = tested on: RA FLS; details: cited from earlier work
[7] = tested on: AIA rats; experiment: Macroscopic knee analysis (X-ray, MRI) in AIA rats; assay type: in vivo, rat; details: day 21
Excerpt: Prior to decalcification, whole rat knees were examined by radiography and MRI. Radiographs of both the inflamed and non-inflamed knees of 9 AIA, 9 NBQX and 3 control rats were obtained using a Kodak FX Pro in-vivo Imaging System (Advanced Molecular Vision, Grantham, UK), and the images analysed using Kodak Molecular Imaging software version 5 with the following parameters: 30 second exposure time at 35 kV, 4.96 F-stop, 71.4 mm FOV, 9.8 mm focal plane.
Both the inflamed and non-inflamed knee joints of 6 AIA and 6 NBQX rats were imaged using a high spatial resolution MRI scanning protocol at the Experimental MRI Centre (EMRIC, School of Biosciences, Cardiff University). Each pair of knees was embedded in 1% agarose (Promega) inside a 50 ml falcon tube prior to scanning. MRI was performed using a Bruker Biospin Advance 9.4T ([…]) MRI system equipped with a transmit-receive quadrature coil. The scanning acquisition parameters were as follows: echo time […], repetition time 24 msec, field of view […]; matrix 640×280×280; and flip angle 180°. Images were subsequently viewed and analysed in ParaVision 5.1 (Bruker) and Analyze 10.0 software Mayo Biomedical Imaging Resource, Rochester, Minn., USA).

[8] = tested on: IL-6 mRNA; experiment: IL-6 mRNA expression in AIA rat joint tissues (QRT-PCR); assay type: in vivo; details: day 21
[9] = tested on: AIA rats; experiment: Knee swelling in AIA rats; assay type: in vivo, rat
Method: Diameters of the inflamed (right) and non-inflamed (left) knees of all the rats were measured using a Mitutoyo® digital calliper (RS Components Ltd, Northants, UK) to quantify swelling. […] Three readings were taken for each knee and the difference between the means of the inflamed and non-inflamed knee gave a value in millimeters of knee swelling.

[10] = tested on: Cathepsin K mRNA; experiment: Bone phenotype mRNA expression in AIA rat knees; assay type: in vivo; details: day 21
[11] = tested on: human RA FLS; details: cited from earlier work
[12] = tested on: AIA rats; experiment: Histological disease assessment in AIA rats (synovial inflammation, joint degradation); assay type: in vivo, rat; details: day 21
Method: On day 21, 9 AIA, 9 NBQX and 3 control rats were culled and their knees dissected intact and fixed in 10% neutral buffered formalin solution (Sigma) for 2 days. Knees were decalcified in 10% EDTA (Fisher Scientific, Loughborough, UK) at 4° C., embedded in paraffin wax, sectioned (6 μm) in the coronal plane and stained with haematoxylin and eosin for synovial inflammation or toluidine blue/safranin-O for cartilage and bone scoring or retained for immunohistochemical analysis. Synovial inflammation and joint degradation were scored by two independent observers blinded to treatment group. An established scoring system was used to score synovial inflammation (3). Briefly, 3 parameters were scored: synovial hyperplasia (pannus formation) (0-3), synovial infiltrate (0-5) and synovial exudate (0-3), to give a maximum score of 11 per joint. Joint degradation was scored using a modified Mankin score (Table 1) consisting of: cartilage surface integrity (0-6), chondrocyte appearance (0-2), proteoglycan loss (0-4), tidemark integrity (0-2) and bone changes (0-3) to give a maximum score of 17 per joint quadrant (medial and lateral femoral condyles (MFC and LFC respectively) and medial and lateral tibial plateaux (MTP and LTP respectively)) totaling to a maximum of 68 per knee. In each knee, two representative sections ˜500 μm apart were scored for joint degradation.

[13] = Body weight in ligament rupture mouse model; assay type: in vivo; details: all mice; over 21 days
Method: Using our non-invasive ligament rupture model, following trauma mice were given an intra-articular injection of 20 mM NBQX in the right knee. The left knee served as unloaded controls. Sterile water injections were performed in some mice to act as vehicle control. Knee swelling was measured using digital callipers on days 0, 1, 2, 3, 7, 16 and 21. […] Lameness scores were not severe enough to warrant extra doses of pain relief.

[14] = tested on: ligament ruptured mice; experiment: Knee swelling in non-invasive ligament rupture mouse model; assay type: in vivo; details: 20 mM intra-articular
Method: We have established a non-invasive mouse model of post-traumatic knee joint degeneration due to ligament rupture.
Using custom built cups to hold the knee in flexion, loads (12N, 4 Hz, sine wave; ElectroForce® 3200, BOSE, USA) were applied to the right knees of 12-week-old C57Bl6 mice (n=10). […] Left knees served as unloaded controls. Immediately following ligament rupture, mice were given an intra-articular injection of 20 mM NBQX in to the right knee, whilst the control mice received an intra-articular injection of sterile H2O (vehicle control). A single dose of Temgesic was also given sub-cutaneously to relieve pain for up to 12 hours following loading.
Lameness scores were carried out every day for the first week and then every few days the following weeks to assess the welfare of the animals and the potential need for pain relief. Knee swelling was measured using digital callipers on days 0, 1, 2, 3, 7, 16 and 21. All mice were euthanized on day 21 and the knee joints fixed in formalin for histology.

[15] = tested on: MNX rats; experiment: Knee swelling in meniscal transection (MNX) rats; assay type: in vivo, rat
Method: as §1, §2, §3

[16] = tested on: AIA rats; experiment: KA1/AMPAR2 immunohistochemistry and TRAP staining in AIA rats; details: day 21
Method: as §4
GluRs and transporters were localised in sequential paraffin knee sections (9 AIA, 9 NBQX and 6 control knees) using antibodies to kainate (anti-KA1, 1:400 dilution), AMPA receptor-2 (anti-ionotropic glutamate receptor-2, 1:100, both Abcam, Cambridge, UK), GLAST (GLAST11-S, 1:100) and EAAC1 (EAAC11-A, 1:200, both Alpha Diagnostic International, Texas, USA). AMPAR2 was also localised in 6 MNX and 6 naïve rats. Sections, processed as for histology, were deparaffinised and rehydrated prior to antigen retrieval using 1 mg/mitrypsin (Sigma) for 20 minutes at 37° C. Endogenous peroxidase activity was blocked with 0.3% hydrogen peroxide (Sigma) for 30 minutes followed by 3 washes in 1×TBS/0.1% tween for 15 minutes each. Sections were treated with 10% normal blocking serum (Sigma) for 1 hour prior to overnight incubation at 4° C. with primary antibody, followed by 3 washes in 1×TBS/0.1% tween. […] ABC horseradish peroxidase kit following the manufacturer's instructions (Vector Laboratories, Peterborough, UK). Sections were developed using nickel enhanced diaminobenzidine (DAB) (Vector Laboratories), counterstained in Mayer's haematoxylin (Fisher Scientific), rinsed in tap water, dehydrated, cleared in xylene and mounted. […]

SMILES: NS(=O)(=O)c1cccc2c1c([N+](=O)[O-])cc1[nH]c(=O)c(=O)[nH]c12 [NBQX, 2,3-dihydroxy-6-nitro-7-sulfamoyl-benzo[f]quinoxaline-2,3-dione]
- difference in weight bearing left/right leg of vehicle control MNX rats compared to NBQX treated rats ([1]; 2.5 mM, P<0.01): significantly greater difference in weight bearing
- difference in weight bearing left/right leg of vehicle control MNX rats compared to NBQX treated rats ([1]; 12.5 mM, P<0.05): significantly greater difference in weight bearing
- difference in weight bearing left/right leg of vehicle control MNX rats compared to NBQX treated rats ([1]; 25 mM, P<0.01): significantly greater difference in weight bearing
- AMPA receptor antagonist [2]: Yes
- weight [3]: consistently put on weight
- Kainate receptor antagonist [4]: Yes
- stance width vs control rats ([5]; P<0.05): significantly greater
- stride length vs control rats ([5]; P<0.05): significantly shorter
- stride length ([5]; by day 14): returned to normal
- stance width ([5]; by day 21): normal
- weight bearing (footprints) ([5]; days 1 and 2): able to weight bear
- degree of foot rotation vs control rats ([5]; right limb, P<0.05): significantly greater
- inhibition of IL-6 release increased by high glutamate concentrations [6]: inhibited
- joint erosion in MRI [7]: greatly reduced
- joint erosions in X-rays [7]: Fewer joint erosions
- synovial inflammation in MRI [7]: greatly reduced
- IL-6 relative expression levels in meniscus vs AIA rats ([8]; inflamed knee, P<0.05): significantly lower
- IL-6 relative expression levels in meniscus vs AIA rats ([8]; left non-inflamed knee): not significant
- mean knee swelling ([9]; day 1, 2.5 mM intra-articular, right knee): 2.95 mm
- reduction in peak knee swelling ([9]; day 1, vs AIA rats, 2.5 mM intra-articular): 33%
- knee swelling vs AIA rats ([9]; every time point throughout 21 days, P<0.001): significant reduction
- cathepsin K mRNA expression, inflamed knees vs AIA inflamed knees [10]: significant reduction
- MMP-2 expression by FLS [11]: did not affect
- synovial hyperplasia, exudate, infiltrate and articular surface degradation vs AIA rats [12]: significantly less severe
- average joint degeneration severity score vs AIA rats ([12]; P<0.001): significantly reduced
- bone changes score vs AIA ([12]; P<0.001): largest difference
- synovial inflammation score vs AIA rats ([12]; P<0.001): significantly lower
- joint degradation in the MFC vs AIA rats ([12]; P<0.01): significantly less joint degradation
- proteoglycan loss score vs AIA ([12]; P<0.01): significantly lowered
- tidemark integrity score vs AIA ([12]; P<0.01): significantly lowered
- chondrocyte appearance score vs AIA ([12]; P<0.05): significantly lowered
- joint degradation in the LFC vs AIA rats ([12]; P<0.05): significantly less joint degradation
- weight [13]: consistently put on weight
- knee swelling vs vehicle controls ([14]; day 7, P<0.05): significantly less knee swelling
- knee swelling vs vehicle controls ([14]; day 21, P<0.001): significantly less knee swelling
- knee swelling compared to day 0 measurements ([14]; from day 2): no significant difference
- knee swelling of vehicle control MNX rats compared to NBQX treated MNX rats ([15]; day 8, 25 mM intra-articular, P<0.05): significantly greater knee swelling
- knee swelling of vehicle control MNX rats compared to NBQX treated MNX rats ([15]; day 14, 2.5 mM intra-articular, P<0.01): significantly greater knee swelling
- knee swelling of vehicle control MNX rats compared to NBQX treated MNX rats ([15]; day 14, 12.5 mM intra-articular, P<0.05): significantly greater knee swelling
- GluR positive cells [16]: apparent reduction
- TRAP positive osteoclasts vs AIA [16]: less abundant
- extent of bone remodeling [16]: reduced

From patent publication US9918986B2, “Methods and compounds for preventing osteoarthritis” (UNIVERSITY COLLEGE CARDIFF CONSULTANTS LIMITED, priority 2013, dated 2018)
